Assay results reported in the supplement of paper PMC4862054.

Legend:
Assay in all cases: normalised response (% of control), CellTox Green; higher = less cell death (100 = DMSO, 0 = benzethonium chloride kill control)
Settings in all cases: incubation time: 72 h
BT-474 = test system: BT-474
Method in brief: (§1)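 Normalised signals at single concentrations make up the values. They come from breast cancer cell lines seeded (20 µl suspension) into 384-well plates with compound at 5 concentrations in 10-fold steps over a compound-specific 10,000-fold range, incubated 72 h, and read for CellTox Green fluorescence then CellTiter-Glo luminescence. Each plate was normalised to 0.1 % DMSO (100) and a positive kill control (0).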

BT-549 = test system: BT-549
Method in brief: as §1

HCC1599 = test system: HCC1599
Method in brief: as §1

MCF-10A = test system: MCF-10A
Method in brief: as §1

MDA-MB-231 = test system: MDA-MB-231
Method in brief: as §1

Row | Structure (SMILES) | normalised response (BT-474) | normalised response (BT-549) | normalised response (HCC1599) | normalised response (MCF-10A) | normalised response (MDA-MB-231)
1 | CN1CCN(c2nc(C3=C(c4c[nH]c5ccccc45)C(=O)NC3=O)c3ccccc3n2)CC1 [Sotrastaurin] (10000 nM) | 98.4% | 99.7% | 102% | 104% | 115%
2 | COc1cc2c(Oc3ccc(NC(=O)C4(C(=O)Nc5ccc(F)cc5)CC4)cc3F)ccnc2cc1OCCCN1CCOCC1 [Foretinib] (1000 nM) | 97.1% | 88.3% | 92% | 101% | -15.4%
3 | CO[C@H](C(=O)[C@@H](O)[C@@H](C)O)[C@@H]1Cc2cc3cc(O[C@H]4C[C@@H](O[C@@H]5C[C@@H](O)[C@H](O)[C@@H](C)O5)[C@H](O)[C@@H](C)O4)c(C)c(O)c3c(O)c2C(=O)[C@H]1O[C@H]1C[C@@H](O[C@@H]2C[C@@H](O)[C@@H](O[C@@H]3C[C@](C)(O)[C@H](O)[C@@H](C)O3)[C@@H](C)O2)[C@H](O)[C@@H](C)O1 [Plicamycin] (10000 nM) | 96% | 79.8% | 87.9% | 9.61% | 55.1%
4 | CC(C)C[C@H](NC(=O)[C@H](CCc1ccccc1)NC(=O)CN1CCOCC1)C(=O)N[C@@H](Cc1ccccc1)C(=O)N[C@@H](CC(C)C)C(=O)[C@@]1(C)CO1 [Carfilzomib] (100 nM) | 61.4% | 50.8% | 97.3% | 69.7% | -17.7%
5 | NC1(c2ccc(-c3nc4ccn5c(=O)[nH]nc5c4cc3-c3ccccc3)cc2)CCC1 [MK-2206] (100 nM) | 103% | 133% | 108% | 105% | 110%
6 | CC(C)C(=O)Nc1ccc([N+](=O)[O-])c(C(F)(F)F)c1 [Flutamide] (1000 nM) | 99.5% | 115% | 94.6% | 97.9% | 98.5%
7 | C[C@@H]1C[C@H]2[C@@H]3CCC4=CC(=O)C=C[C@]4(C)[C@@]3(F)[C@@H](O)C[C@]2(C)[C@@]1(O)C(=O)CO [Dexamethasone] (10000 nM) | 94% | 100% | 94.4% | 81.8% | 139%
8 | C[C@@H]1C[C@H]2[C@@H]3CCC4=CC(=O)C=C[C@]4(C)[C@@]3(F)[C@@H](O)C[C@]2(C)[C@@]1(O)C(=O)CO [Dexamethasone] (1000 nM) | 99.3% | 111% | 87% | 78.1% | 141%
9 | CO[C@H]1C[C@@H]2CC[C@@H](C)[C@@](O)(O2)C(=O)C(=O)N2CCCC[C@H]2C(=O)O[C@H]([C@H](C)C[C@@H]2CC[C@@H](O)[C@H](OC)C2)CC(=O)[C@H](C)/C=C(\C)[C@@H](O)[C@@H](OC)C(=O)[C@H](C)C[C@H](C)/C=C/C=C/C=C/1C [Sirolimus] (100 nM) | 103% | 93.7% | 106% | 107% | 116%
10 | CN1CCN(c2nc(C3=C(c4c[nH]c5ccccc45)C(=O)NC3=O)c3ccccc3n2)CC1 [Sotrastaurin] (1000 nM) | 98.8% | 111% | 92.9% | 108% | 108%
11 | CCCCCOC(=O)Nc1nc(=O)n([C@@H]2O[C@H](C)[C@@H](O)[C@H]2O)cc1F [Capecitabine] (1000 nM) | 99.1% | 117% | 96.3% | 64.8% | –
12 | Cn1nnc2c(C(N)=O)ncn2c1=O [Temozolomide] (10000 nM) | 101% | 75.3% | 99.2% | 93.2% | 108%
13 | CCCCCOC(=O)Nc1nc(=O)n([C@@H]2O[C@H](C)[C@@H](O)[C@H]2O)cc1F [Capecitabine] (10000 nM) | 97.2% | 117% | 102% | 74.1% | 110%
14 | O=C(c1cc(Cc2n[nH]c(=O)c3ccccc23)ccc1F)N1CCN(C(=O)C2CC2)CC1 [Olaparib] (1000 nM) | 92.9% | 124% | 94.9% | 101% | 100%
15 | NC(=O)c1cccc2cn(-c3ccc([C@@H]4CCCNC4)cc3)nc12 [MK-4827] (10000 nM) | 97.5% | 103% | 97.4% | 94.8% | 139%
16 | COc1cc2c(N3CCN(C(=O)Nc4ccc(OC(C)C)cc4)CC3)ncnc2cc1OCCCN1CCCCC1 [Tandutinib] (100 nM) | 96.3% | 129% | 91.2% | 108% | 105%
17 | CO[C@H](C(=O)[C@@H](O)[C@@H](C)O)[C@@H]1Cc2cc3cc(O[C@H]4C[C@@H](O[C@@H]5C[C@@H](O)[C@H](O)[C@@H](C)O5)[C@H](O)[C@@H](C)O4)c(C)c(O)c3c(O)c2C(=O)[C@H]1O[C@H]1C[C@@H](O[C@@H]2C[C@@H](O)[C@@H](O[C@@H]3C[C@](C)(O)[C@H](O)[C@@H](C)O3)[C@@H](C)O2)[C@H](O)[C@@H](C)O1 [Plicamycin] (1000 nM) | 100% | 107% | 94.9% | 86.6% | 106%
18 | CC(C)C[C@H](NC(=O)[C@H](CCc1ccccc1)NC(=O)CN1CCOCC1)C(=O)N[C@@H](Cc1ccccc1)C(=O)N[C@@H](CC(C)C)C(=O)[C@@]1(C)CO1 [Carfilzomib] (1000 nM) | 45.7% | 62.5% | 99.5% | -56% | -0.32%
19 | COc1cc2c(Oc3ccc(NC(=O)C4(C(=O)Nc5ccc(F)cc5)CC4)cc3F)ccnc2cc1OCCCN1CCOCC1 [Foretinib] (100 nM) | 100% | 113% | 99.2% | 111% | 65.1%
20 | O=C(O)CC[C@H]1CC[C@@](c2cc(F)ccc2F)(S(=O)(=O)c2ccc(Cl)cc2)CC1 [MK-0752] (1000 nM) | 104% | 107% | 109% | 114% | 111%
21 | Cn1nnc2c(C(N)=O)ncn2c1=O [Temozolomide] (1000 nM) | 96.5% | 108% | 94.6% | 89.5% | 109%
22 | CC(C)C(=O)Nc1ccc([N+](=O)[O-])c(C(F)(F)F)c1 [Flutamide] (10000 nM) | 92.6% | 111% | 103% | 106% | 112%

Row | Structure (SMILES) | normalised response (BT-474) | normalised response (BT-549) | normalised response (HCC1599) | normalised response (MCF-10A) | normalised response (MDA-MB-231)
23 | Cc1cc2c(F)c(Oc3ncnn4cc(OC[C@@H](C)O)c(C)c34)ccc2[nH]1 [Brivanib] (1000 nM) | 97.9% | 95.7% | 80.2% | 105% | 102%
24 | C[C@]12C=CC(=O)C=C1CC[C@@H]1[C@@H]2C(=O)C[C@@]2(C)[C@H]1CC[C@]2(O)C(=O)CO [Prednisone] (10000 nM) | 101% | 99.6% | 102% | 104% | 114%
25 | CC/C(=C(\c1ccccc1)c1ccc(OCCN(C)C)cc1)c1ccccc1 [Tamoxifen] (10000 nM) | 9.58% | 86.1% | 80.4% | 81.5% | 13.6%
26 | O=NN(CCCl)C(=O)NC1CCCCC1 [Lomustine] (1000 nM) | 98.1% | 104% | 93.7% | 96.9% | 90%
27 | Cc1c(N)nc([C@H](CC(N)=O)NC[C@H](N)C(N)=O)nc1C(=O)N[C@H](C(=O)N[C@H](C)[C@@H](O)[C@H](C)C(=O)N[C@H](C(=O)NCCc1nc(-c2nc(C(=O)NCCC[S+](C)C)cs2)cs1)[C@@H](C)O)[C@@H](OC1OC(CO)C(O)C(O)C1OC1OC(CO)C(O)C(OC(N)=O)C1O)c1cnc[nH]1 (some centres not stated) [Bleomycin] (10000 nM) | 93.2% | 82.7% | 84% | 112% | 78%
28 | C[C@@H](C(=O)O)c1ccc(-c2ccccc2)c(F)c1 [Tarenflurbil] (1000 nM) | 97.1% | 108% | 96.3% | 91.4% | –
29 | CCN(CC)CCOc1ccc(C(=C(Cl)c2ccccc2)c2ccccc2)cc1 [Clomifene] (1000 nM) | 97.6% | 114% | 100% | 80.3% | 96%
30 | O=NN(CCCl)C(=O)NC1CCCCC1 [Lomustine] (10000 nM) | 95.2% | 93.2% | 103% | 88.2% | –
31 | CC[C@@H]1C(=O)N(C)c2cnc(Nc3ccc(C(=O)N[C@H]4CC[C@H](N5CCN(CC6CC6)CC5)CC4)cc3OC)nc2N1C(C)C [Volasertib] (100 nM) | 94.5% | 79% | 72.2% | 24.1% | -0.74%
32 | CCN(CC)CCOc1ccc(C(=C(Cl)c2ccccc2)c2ccccc2)cc1 [Clomifene] (10000 nM) | 5.17% | 82.5% | 48.6% | 60.3% | -87.9%
33 | Cc1cc2c(F)c(Oc3ncnn4cc(OC[C@@H](C)O)c(C)c34)ccc2[nH]1 [Brivanib] (100 nM) | 100% | 117% | 99.8% | 107% | 115%
34 | CC/C(=C(\c1ccccc1)c1ccc(OCCN(C)C)cc1)c1ccccc1 [Tamoxifen] (1000 nM) | 101% | 94% | 103% | 111% | 103%
35 | C[C@]12C=CC(=O)C=C1CC[C@@H]1[C@@H]2C(=O)C[C@@]2(C)[C@H]1CC[C@]2(O)C(=O)CO [Prednisone] (1000 nM) | 103% | 120% | 97.7% | 98.8% | 116%
36 | Nc1nc(Cl)nc2c1ncn2[C@@H]1O[C@H](CO)[C@@H](O)[C@@H]1F [Clofarabine] (10000 nM) | 105% | 87.3% | 93.9% | 110% | 90.7%
37 | CC[C@@H]1C(=O)N(C)c2cnc(Nc3ccc(C(=O)N[C@H]4CC[C@H](N5CCN(CC6CC6)CC5)CC4)cc3OC)nc2N1C(C)C [Volasertib] (1000 nM) | 94.7% | 71% | 74.2% | 56.1% | 95%
38 | NC(=O)NO [Hydroxyurea] (100000 nM) | 97.4% | 109% | 104% | 96.7% | 118%
39 | O=C(O)CC[C@H]1CC[C@@](c2cc(F)ccc2F)(S(=O)(=O)c2ccc(Cl)cc2)CC1 [MK-0752] (100 nM) | 102% | 131% | 111% | 114% | 122%
40 | Cc1c(N)nc([C@H](CC(N)=O)NC[C@H](N)C(N)=O)nc1C(=O)N[C@H](C(=O)N[C@H](C)[C@@H](O)[C@H](C)C(=O)N[C@H](C(=O)NCCc1nc(-c2nc(C(=O)NCCC[S+](C)C)cs2)cs1)[C@@H](C)O)[C@@H](OC1OC(CO)C(O)C(O)C1OC1OC(CO)C(O)C(OC(N)=O)C1O)c1cnc[nH]1 (some centres not stated) [Bleomycin] (1000 nM) | 98.2% | 92% | 94.8% | 92.5% | 67.9%
41 | NC(=O)NO [Hydroxyurea] (10000 nM) | 100% | 115% | 103% | 99.2% | 113%
42 | Nc1nc(Cl)nc2c1ncn2[C@@H]1O[C@H](CO)[C@@H](O)[C@@H]1F [Clofarabine] (1000 nM) | 100% | 70.7% | 81.2% | 110% | 111%
43 | NC(=O)c1cccc2cn(-c3ccc([C@@H]4CCCNC4)cc3)nc12 [MK-4827] (1000 nM) | 101% | 134% | 99.2% | 111% | 120%
